According to patent publication US9999222B2, “Herbicidal combination comprising azines” (BASF SE, priority 2014, dated 2018):
Where “and” joins values, the source holds several entries; their conditions need not be identical. Identical values can stand only once. Like-named read-outs stand apart in the source and are kept apart here.

Tests used:
Experiment in all cases: Greenhouse test, pre-emergence treatment
COMBE = format: in vivo, Commelina benghalensis; conditions: Commelina benghalensis, 480 h; pre-emergence, 12 g ai/ha; read-out: observed % activity 20 DAT
How it was run: (§1)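 Seeds were sown in loamy sand with approximately 3.0% humus, then sprayed at once with actives suspended or emulsified in water. Pots were watered, hooded until rooting, held at 10-25° C. or 20-35° C. by species for 2 to 4 weeks, and scored 0 (no damage) to 100 (no emergence/complete destruction).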

SETFA = format: in vivo, Setaria faberi; conditions: Setaria faberi, 480 h, SETFA, 20 DAT, read-out: observed % activity 20 DAT
How it was run: as §1

POLCO = format: in vivo, Polygonum convolvulus; conditions: Fallopia convolvulus, 480 h, pre-emergence; for inhibition at 12.5 g/ha: use rate 12.5 g ai/ha
How it was run: as §1

LOLMU = format: in vivo, Lolium multiflorum; conditions: Lolium multiflorum, pre-emergence, 480 h; for inhibition at 12.5 g/ha: use rate 12.5 g ai/ha; for inhibition at 25 g/ha: use rate 25 g ai/ha
How it was run: as §1

EPHHL = format: in vivo, Euphorbia heterophylla; conditions: Euphorbia heterophylla, pre-emergence, 480 h, pre-emergence, read-out: observed % activity 20 DAT
How it was run: as §1

GERPU = format: in vivo, Geranium pusillum; conditions: Geranium pusillum, pre-emergence, 480 h, pre-emergence, read-out: observed % activity 20 DAT
How it was run: as §1

AVEFA = format: in vivo, Avena fatua; conditions: pre-emergence
How it was run: as §1

PHACA = format: in vivo, Phalaris canariensis; conditions: Phalaris canariensis, pre-emergence, 480 h; for inhibition at 12.5 g/ha: use rate 12.5 g ai/ha; for inhibition at 25 g/ha: use rate 25 g ai/ha
How it was run: as §1

ALOMY = format: in vivo, Alopecurus myosuroides; conditions: Alopecurus myosuroides, pre-emergence, 480 h; for inhibition at 12.5 g/ha: use rate 12.5 g ai/ha; for inhibition at 25 g/ha: use rate 25 g ai/ha
How it was run: as §1

BRADC = format: in vivo, Brachiaria decumbens; conditions: pre-emergence
Description: The culture containers used were plastic flowerpots containing loamy sand with approximately 3.0% of humus as the substrate. The seeds of the test plants were sown separately for each species.
For the pre-emergence treatment, the active ingredients, which had been suspended or emulsified in water, were applied directly after sowing by means of finely distributing nozzles. The containers were irrigated gently to promote germination and growth and subsequently covered with transparent plastic hoods until the plants had rooted. This cover caused uniform germination of the test plants, unless this had been impaired by the active ingredients.
Depending on the species, the plants were kept at 10-25° C. or 20-35° C., respectively.
The test period extended over 2 to 4 weeks. During this time, the plants were tended, and their response to the individual treatments was evaluated.
Evaluation was carried out using a scale from 0 to 100. 100 means no emergence of the plants, or complete destruction of at least the aerial moieties, and 0 means no damage, or normal course of growth. A moderate herbicidal activity is given at values of at least 60, a good herbicidal activity is given at values of at least 70, and a very good herbicidal activity is given at values of at least 85.
The respective stated components a and b, and if appropriate, c were formulated as a 10% by weight strength emulsion concentrate and, with addition of the amount of solvent system, introduced into the spray liquor used for applying the active compound.
In the examples, the solvent used was water.
In the examples below, using the method of S. R. Colby (1967) “Calculating synergistic and antagonistic responses of herbicide combinations”, Weeds 15, p. 22ff., the value E, which is expected if the activity of the individual active compounds is only additive, was calculated. E=X+Y−(X·Y/100) where • X=percent activity using active compound a at an application rate A; • Y=percent activity using active compound b at an application rate B; • E=expected activity (in %) by a+b at application rates A+B.
If the value found experimentally is higher than the value E calculated according to Colby, a synergistic effect is present.

ABUTH = format: in vivo, Abutilon theophrasti; conditions: Abutilon theophrasti, 480 h, 24 g ai/ha, read-out: observed % activity 20 DAT
How it was run: as §1

GALAP = format: in vivo, Galium aparine; conditions: Galium aparine, 480 h, pre-emergence
How it was run: as §1

ECHCG = format: in vivo, Echinocloa crus-galli; conditions: Echinochloa crus-galli, 480 h, read-out: observed % activity 20 DAT; for inhibition at 12.5 g/ha: use rate 12.5 g ai/ha
How it was run: as §1

KCHSC = format: in vivo, Kochia scoparia; conditions: Bassia scoparia, 480 h, pre-emergence
How it was run: as §1

[1] = 12 g ai/ha, read-out: observed % activity 20 DAT
[2] = 24 g ai/ha, read-out: observed % activity 20 DAT
[3] = 12 g ai/ha, 20 DAT, read-out: observed % activity
[4] = read-out: observed % activity 20 DAT
[5] = 6 g ai/ha, 20 DAT, read-out: observed % activity
[6] = 24 g ai/ha, 20 DAT, read-out: observed % activity
[7] = 6 g ai/ha, read-out: observed % activity 20 DAT
[8] = 8 g ai/ha, read-out: observed % activity 20 DAT
[9] = LOLMU, 20 DAT, read-out: observed % activity 20 DAT
[10] = PHACA, 20 DAT, read-out: observed % activity 20 DAT
[11] = ALOMY, 20 DAT, read-out: observed % activity 20 DAT

**Q.** With `Cn1nc(C(F)(F)F)c(CS(=O)(=O)C2=NOC(C)(C)C2)c1OC(F)F` [Pyroxasulfone, pyroxasulfone] as the molecule, how does the pest or weed control at 12 g/ha (COMBE) read?
**A.** 90%

**Q.** And the inhibition at 12.5 g/ha (SETFA; use rate 12.5 g ai/ha)?
**A.** 80%

**Q.** And the inhibition at 25 g/ha (SETFA; use rate 25 g ai/ha)?
**A.** 95%

**Q.** And the pest or weed control at 12 g/ha (POLCO; [1])?
**A.** 20%

**Q.** And the pest or weed control at 24 g/ha (POLCO; [2])?
**A.** 20%

**Q.** What about the inhibition at 12 g/ha (POLCO; [3]) of the same molecule?
**A.** 0%

**Q.** What about the inhibition at 12.5 g/ha (POLCO; POLCO, 20 DAT, read-out: observed % activity 20 DAT) of the same molecule?
**A.** 0%

**Q.** What about the inhibition at 12.5 g/ha (POLCO; [4]) of the same molecule?
**A.** 0%

**Q.** And the inhibition at 6 g/ha (LOLMU; [5])?
**A.** 35%

**Q.** What about the inhibition at 24 g/ha (LOLMU; [6]) of the same molecule?
**A.** 98%

**Q.** What about the pest or weed control at 6 g/ha (LOLMU; [7]) of the same molecule?
**A.** 70%

**Q.** And the pest or weed control at 8 g/ha (LOLMU; [8])?
**A.** 50%

**Q.** And the pest or weed control at 12 g/ha (LOLMU; [1])?
**A.** 80%

**Q.** And the pest or weed control at 24 g/ha (LOLMU; [2])?
**A.** 95%

**Q.** What about the inhibition at 12.5 g/ha (LOLMU; [9]) of the same molecule?
**A.** 30%

**Q.** What about the inhibition at 25 g/ha (LOLMU; [9]) of the same molecule?
**A.** 40%

**Q.** And the inhibition at 12.5 g/ha (LOLMU; [4])?
**A.** 30%

**Q.** What about the inhibition at 25 g/ha (LOLMU; [4]) of the same molecule?
**A.** 40%

**Q.** What about the pest or weed control at 12 g/ha (EPHHL; 12 g ai/ha) of the same molecule?
**A.** 40%

**Q.** And the pest or weed control at 24 g/ha (EPHHL; 24 g ai/ha)?
**A.** 70%

**Q.** What about the pest or weed control at 12 g/ha (GERPU; 12 g ai/ha) of the same molecule?
**A.** 10%

**Q.** What about the pest or weed control at 24 g/ha (GERPU; 24 g ai/ha) of the same molecule?
**A.** 20%

**Q.** And the inhibition at 6 g/ha (AVEFA; Avena fatua, 480 h, 6 g ai/ha, 20 DAT, read-out: observed % activity)?
**A.** 0%

**Q.** And the inhibition at 24 g/ha (AVEFA; Avena fatua, 480 h, 24 g ai/ha, 20 DAT, read-out: observed % activity)?
**A.** 60%

**Q.** And the “observed % activity 20 DAT” value (AVEFA; 8 g ai/ha)?
**A.** 40%

**Q.** And the “observed % activity 20 DAT” value (AVEFA; 12 g ai/ha)?
**A.** 20% and 30%

**Q.** And the “observed % activity 20 DAT” value (AVEFA; 16 g ai/ha)?
**A.** 60% and 35%

**Q.** What about the “observed % activity 20 DAT” value (AVEFA; 24 g ai/ha) of the same molecule?
**A.** 70%

**Q.** What about the inhibition at 6 g/ha (PHACA; [5]) of the same molecule?
**A.** 80%

**Q.** And the inhibition at 24 g/ha (PHACA; [6])?
**A.** 95%

**Q.** What about the pest or weed control at 6 g/ha (PHACA; [7]) of the same molecule?
**A.** 70%

**Q.** What about the pest or weed control at 8 g/ha (PHACA; [8]) of the same molecule?
**A.** 70%

**Q.** What about the pest or weed control at 12 g/ha (PHACA; [1]) of the same molecule?
**A.** 75%

**Q.** And the pest or weed control at 16 g/ha (PHACA; 16 g ai/ha, read-out: observed % activity 20 DAT)?
**A.** 75%

**Q.** And the pest or weed control at 24 g/ha (PHACA; [2])?
**A.** 95%

**Q.** What about the inhibition at 12.5 g/ha (PHACA; [10]) of the same molecule?
**A.** 40%

**Q.** What about the inhibition at 25 g/ha (PHACA; [10]) of the same molecule?
**A.** 55%

**Q.** What about the inhibition at 12.5 g/ha (PHACA; [4]) of the same molecule?
**A.** 40%

**Q.** And the inhibition at 25 g/ha (PHACA; [4])?
**A.** 55%

**Q.** And the inhibition at 12 g/ha (ALOMY; [3])?
**A.** 95%

**Q.** What about the inhibition at 24 g/ha (ALOMY; [6]) of the same molecule?
**A.** 98%

**Q.** What about the pest or weed control at 6 g/ha (ALOMY; [7]) of the same molecule?
**A.** 80%

**Q.** And the pest or weed control at 12 g/ha (ALOMY; [1])?
**A.** 95%

**Q.** And the pest or weed control at 24 g/ha (ALOMY; [2])?
**A.** 98%

**Q.** What about the inhibition at 12.5 g/ha (ALOMY; [11]) of the same molecule?
**A.** 20%

**Q.** What about the inhibition at 25 g/ha (ALOMY; [11]) of the same molecule?
**A.** 20%

**Q.** And the inhibition at 12.5 g/ha (ALOMY; [4])?
**A.** 20%

**Q.** What about the inhibition at 25 g/ha (ALOMY; [4]) of the same molecule?
**A.** 20%

**Q.** And the inhibition at 6 g/ha (BRADC; Urochloa decumbens, 480 h, 6 g ai/ha, 20 DAT, read-out: observed % activity)?
**A.** 53%

**Q.** What about the pest or weed control at 6 g/ha (BRADC; Urochloa decumbens, 480 h, 6 g ai/ha, read-out: observed % activity 20 DAT) of the same molecule?
**A.** 35%

**Q.** What about the pest or weed control at 12 g/ha (BRADC; Urochloa decumbens, 480 h, 12 g ai/ha, read-out: observed % activity 20 DAT) of the same molecule?
**A.** 30%

**Q.** And the pest or weed control at 16 g/ha (BRADC; Urochloa decumbens, 480 h, 16 g ai/ha, read-out: observed % activity 20 DAT)?
**A.** 55%

**Q.** What about the pest or weed control at 24 g/ha (BRADC; Urochloa decumbens, 480 h, 24 g ai/ha, read-out: observed % activity 20 DAT) of the same molecule?
**A.** 95%

**Q.** What about the “observed % activity 20 DAT” value (BRADC; 12 g ai/ha) of the same molecule?
**A.** 30%

**Q.** What about the pest or weed control at 24 g/ha (ABUTH) of the same molecule?
**A.** 40%

**Q.** And the pest or weed control at 12 g/ha (GALAP; [1])?
**A.** 35%

**Q.** What about the pest or weed control at 24 g/ha (GALAP; [2]) of the same molecule?
**A.** 50%

**Q.** What about the inhibition at 12 g/ha (GALAP; [3]) of the same molecule?
**A.** 75%

**Q.** And the inhibition at 24 g/ha (GALAP; [6])?
**A.** 75%

**Q.** And the pest or weed control at 8 g/ha (ECHCG; 8 g ai/ha)?
**A.** 70%

**Q.** What about the inhibition at 12.5 g/ha (ECHCG; ECHCG, 20 DAT) of the same molecule?
**A.** 50%

**Q.** What about the inhibition at 25 g/ha (ECHCG; ECHCG, use rate 25 g ai/ha, 20 DAT) of the same molecule?
**A.** 90%

**Q.** And the inhibition at 12.5 g/ha (ECHCG)?
**A.** 50%

**Q.** What about the pest or weed control at 12 g/ha (KCHSC; [1]) of the same molecule?
**A.** 50%

**Q.** And the pest or weed control at 24 g/ha (KCHSC; [2])?
**A.** 80%

**Q.** And the inhibition at 6 g/ha (KCHSC; [5])?
**A.** 0%

**Q.** And the inhibition at 12 g/ha (KCHSC; [3])?
**A.** 85%

**Q.** And the inhibition at 25 g/ha (KCHSC; use rate 25 g ai/ha, read-out: observed % activity 20 DAT)?
**A.** 0%
